For assay [1], the system named is human neuronal calcium channel α1D and α2 subunits, expressed in Xenopus laevis oöcytes. The assay can be described thus: Two-electrode voltage clamp of barium currents in Xenopus laevis oöcytes injected with α1D and α2 transcripts. Conditions: Bay K 8644; very small currents (15-30 nA); holding potential -90 mV. The assay is classed as cell-based. The source says: Plasmids pVDCC III.RBS(A), containing of pcDNA1 and the α1D cDNA that begins with a ribosome binding site and the eighth ATG codon of the coding sequence (see Example III.A.3.d), plasmid pHBCaCHα1A containing of pcDNA1 and an α2 subunit cDNA (see Example IV), and plasmid pHBCaCHβ1bRBS (A) containing pcDNA1 and the β1 DNA lacking intron sequence and containing a ribosome binding site (see Example III), were linearized by restriction digestion. The α1D cDNA- and α2 subunit-encoding plasmids were digested with XhoI, and the β1 subunit-encoding plasmid was digested with EcoRV. The DNA insert was transcribed with T7 RNA polymerase.

Assay [2] has as its system human neuronal calcium channel α1D (SEQ ID No. 1), α2 (SEQ ID No. 11) and β1 (SEQ ID No. 9) subunits, stably expressed in HEK 293 cells. The assay can be described thus: Whole-cell patch clamp of barium currents in stably transfected HEK 293 cells. The note with it: Bay K 8644 1 µM.
The subject of assay [3] is human neuronal calcium channel α1D (SEQ ID No. 1), α2 (SEQ ID No. 11) and β1 (SEQ ID No. 9) subunits, expressed in HEK 293 cells. The assay can be described thus: Whole-cell patch clamp of barium currents in transiently transfected HEK 293 cells. Type of assay: cell-based. The note with it: 1 µM Bay K 8644. The method, then:
Pflugers Arch. 391:85-100].
Two days after transient transfection of HEK 293 cells with α1, α2 and β1 subunit-encoding cDNA and the lacZ gene, individual transfectants were assayed for voltage-dependent barium currents. The currents in nine transfectants were recorded.

For assay [4], the system named is human neuronal calcium channel α2 and β1 subunits, expressed in Xenopus laevis oöcytes. Kind of assay: Two-electrode voltage clamp of barium currents in Xenopus laevis oöcytes injected with α2 and β1 transcripts (no α1D; comparison). The assay is classed as cell-based. The note with it: Bay K 8644; n=11.

The record followed here is EP1469074B1, “Human calcium channel compositions and methods” (priority 1991, dated 1993).

As for `COC(=O)C1=C(C)NC(C)=C([N+](=O)[O-])C1c1ccccc1C(F)(F)F` (stereo not drawn) [Bay K 8644], the “response of barium currents to the compound” value in assay [1] is recorded as “little or no response”. Moreover, the “barium current during application of the compound” value in assay [2] (depolarized to -10 mV from holding potential -90 mV, approximately 35pA in its absence) was “approximately 75 pA”. The “shift of the current-voltage relation” value in assay [2] (same cell, series of depolarizing voltages) is on record as “about -10 mV”. Moreover, the “effect on inward barium current” value in assay [3] (holding potential -90 mV, 15 mM Ba2+ bath, one transfectant) is recorded as “significantly enhanced in magnitude”. In addition, the “largest inward barium current in the presence of the compound” value in assay [3] (membrane depolarized to 0 mV from holding potential -90 mV) is on record as -160 pA. For the same compound, the “sensitivity of inward barium currents to the compound” value in assay [4] is given as “insensitive”.
